Values quoted from earlier work as cited in US20050124592A1 (priority 2002, published 2005).
Like-named read-outs stand apart in the source and are kept apart here.

Experiments:
progesterone receptor = target: T1, progesterone receptor (Homo sapiens, UniProt P06401)
T1 sequence (P06401 1-933): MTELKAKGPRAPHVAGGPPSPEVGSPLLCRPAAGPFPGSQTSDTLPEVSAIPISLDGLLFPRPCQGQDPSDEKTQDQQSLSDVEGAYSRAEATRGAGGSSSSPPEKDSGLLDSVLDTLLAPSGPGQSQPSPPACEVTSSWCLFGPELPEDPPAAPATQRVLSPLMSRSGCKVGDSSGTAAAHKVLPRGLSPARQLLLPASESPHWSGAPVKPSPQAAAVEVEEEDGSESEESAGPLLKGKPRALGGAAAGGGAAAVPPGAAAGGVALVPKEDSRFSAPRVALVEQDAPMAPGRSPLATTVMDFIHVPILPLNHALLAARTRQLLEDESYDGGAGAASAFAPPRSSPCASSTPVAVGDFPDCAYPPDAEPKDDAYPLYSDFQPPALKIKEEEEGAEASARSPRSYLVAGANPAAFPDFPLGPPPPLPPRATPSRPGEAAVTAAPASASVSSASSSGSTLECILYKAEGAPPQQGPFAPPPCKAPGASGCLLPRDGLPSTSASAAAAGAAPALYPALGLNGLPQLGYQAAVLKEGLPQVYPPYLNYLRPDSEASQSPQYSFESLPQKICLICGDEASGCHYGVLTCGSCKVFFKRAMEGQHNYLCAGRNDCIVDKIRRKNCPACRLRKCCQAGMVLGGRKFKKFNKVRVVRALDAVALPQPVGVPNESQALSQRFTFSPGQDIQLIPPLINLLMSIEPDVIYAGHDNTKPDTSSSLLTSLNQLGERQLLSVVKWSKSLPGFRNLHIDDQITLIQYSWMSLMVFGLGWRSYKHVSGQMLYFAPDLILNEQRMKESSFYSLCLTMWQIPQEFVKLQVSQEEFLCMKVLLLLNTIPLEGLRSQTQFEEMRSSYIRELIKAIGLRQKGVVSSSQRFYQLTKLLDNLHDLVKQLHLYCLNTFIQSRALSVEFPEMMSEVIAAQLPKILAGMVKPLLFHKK

Which estrogenic activity (estrogen receptor) does the source give for `C#C[C@]1(O)CC[C@H]2[C@@H]3[C@H](C)CC4=C(CCC(=O)C4)[C@H]3CC[C@@]21C` [tibolone, (7α,17α)-17-hydroxy-7-methyl-19-nor-17-pregn-5(10)-en-20-yn-3-one] here?
The estrogenic activity was “hardly has an estrogenic activity”.

And the estrogenic activity (estrogen receptor; listed as Tibolone)?
The estrogenic activity was “weak”.

And the progestagenic activity (progesterone receptor)?
The progestagenic activity was “weak”.
